# Molecular target: T1, FKBP12 (Homo sapiens, UniProt P62942)
# T1 construct: gene FKBP1A; AVI-tagged FKBP12, E. coli BL21(DE3)pLysS, immobilized on NTA sensor chip
# Assay type: binding
# Conditions: 25 °C; binary complex
# T1 sequence (P62942 2-108): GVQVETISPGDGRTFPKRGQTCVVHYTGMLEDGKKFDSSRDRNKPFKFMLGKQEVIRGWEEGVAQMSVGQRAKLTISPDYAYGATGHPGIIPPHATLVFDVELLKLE
compound,measurement,value
C=CC[C@@H]1/C=C(\C)C[C@H](C)C[C@H](OC)[C@H]2O[C@@](O)(C(=O)C(=O)N3CCCC[C@H]3C(=O)O[C@H](/C(C)=C/[C@@H]3CC[C@@H](O)[C@H](OC)C3)[C@H](C)[C@@H](O)CC1=O)[C@H](C)C[C@@H]2OC [FK506],KD,"KD measurements by SPR for WDB001, WDB002, WDB003, WDB011, rapamycin, and FK506"
